Measured values as given in US20260001834A1, “COMPOUND OR SALT THEREOF, LIPID COMPOSITION, PHARMACEUTICAL COMPOSITION, AND DELIVERY CARRIER” (FUJIFILM Corporation, priority 2023, published 2026).

Tests used:
[1] = Particle diameter and polydispersity index (PdI) of mRNA-encapsulating lipid nanoparticles; assay type: physicochemical; conditions: EPO mRNA-encapsulating lipid nanoparticles, compound:DSPC:cholesterol:DMG-PEG2000=50:10:38.5:1.5; diluted with PBS
Protocol: (§1) The compounds shown in Table 9, 1,2-distearoyl-sn-glycero-3-phosphocholine (product name: COATSOME® MC-8080; NOF corporation) (hereinafter, DSPC), cholesterol (product name: Cholesterol HP; Nippon Seika Co., Ltd.), and 1,2-dimyristoyl-rac-glycero-3-(methylpolyoxyethylene 2000) (hereinafter, DMG-PEG2000) (product name: SUNBRIGHT® GM-020; NOF corporation) were dissolved in ethanol at a molar ratio (mol %) of compounds shown in Table 9:1,2-distearoyl-sn-glycero-3-phosphocholine:cholesterol:DMG-PEG2000=50:10:38.5:1.5 such that the total lipid concentration was 12.5 mmol/L, thereby obtaining an oil phase.
(§2) EPO mRNA (product name: CleanCap EPO mRNA (5moU); TriLink) was diluted with 50 mmol/L citrate buffer having a pH 4.0 such that the weight ratio of total lipid concentration to mRNA concentration is about 20:1, thereby obtaining a water phase. Then, the water phase and the oil phase were mixed together using NanoAssemblr (Precision NanoSystems) such that the volume ratio of water phase:oil phase was 3:1, and the mixed solution was 2-fold diluted with phosphate buffered physiological saline (PBS) or water, thereby obtaining a dispersion liquid of mRNA lipid nanoparticles. The dispersion liquid was dialyzed with 20 mM Tris buffer solution containing 8% sucrose using a dialysis cassette (Slide-A-Lyzer G2, MWCO: 10 kD, Thermo Fisher Scientific) to remove ethanol, thereby obtaining EPO mRNA-encapsulating lipid nanoparticles.
The particle diameter and the polydispersity index (PdI) of the mRNA-encapsulating lipid nanoparticles were obtained by measuring a dispersion liquid of lipid nanoparticles diluted with phosphate buffered physiological saline (PBS) using a particle size analyzer NanoSAQLA (Otsuka Electronics Co., Ltd.).

[2] = Encapsulation rate of mRNA in lipid nanoparticles; assay type: physicochemical; conditions: EPO mRNA-encapsulating lipid nanoparticles, compound:DSPC:cholesterol:DMG-PEG2000=50:10:38.5:1.5
Protocol: as §1, §2
<Evaluation of Encapsulation Rate of mRNA> (Quantification of Total mRNA Concentration)
EPO mRNA was diluted with MilliQ water to prepare a diluted sample in 2-fold dilution series from 100 μg/mL to 3.1 μg/mL, and a standard solution for calibration was prepared. 50 μL of the standard solution for calibration or the mRNA lipid nanoparticles was mixed with 450 μL of methanol to prepare a measurement solution.
The absorbance of each measurement solution at 260 nm and 330 nm was measured using a UV plate reader (Multiskan Go, Thermo Fisher Scientific), the absorbance at 330 nm was subtracted from the absorbance at 260 nm, and the result was used as the absorbance of each measurement solution. The total water phase nucleic acid concentration was calculated from the calibration curve using the absorbance of each sample measurement solution.
(Quantification of mRNA Concentration in Outer Water Phase)
The concentration of the outer water phase nucleic acid was quantified by a standard addition method using a QuanT-iT RiboGreen RNA Assay Kit (Thermo Fisher Scientific). First, a 20×TE buffer included in the above kit was diluted with water, thereby obtaining a 1×TE buffer. TE represents Tris/EDTA (ethylenediaminetetraacetic acid). EPO mRNA was diluted with a TE buffer such that the final concentration was 0 to 400 ng/mL to prepare a nucleic acid diluted series. 10 μL of mRNA lipid nanoparticles diluted 5-fold with TE buffer and 90 μL of a nucleic acid dilution series were mixed in a 96-well plate, 100 μL of a Ribogreen reagent diluted 200-fold with TE buffer was added to each well, and then fluorescence (excitation wavelength: 485 nm, fluorescence wavelength: 535 nm) was measured using a fluorescence plate reader (Infinite 200 Pro M nano+, TECAN). From the obtained results, the outer water phase nucleic acid concentration of each measurement solution was calculated according to the standard addition method.
(Calculation of Encapsulation Rate)
By using the quantification results of the total mRNA concentration and the mRNA concentration in the outer water phase that were obtained through the above steps, the mRNA encapsulation rate of the mRNA lipid nanoparticles was calculated according to the following Equation.

[3] = tested on: ICR mice; experiment: EPO expression level in mice after intravenous EPO mRNA lipid nanoparticles (human EPO ELISA of plasma); assay type: in vivo; conditions: mRNA dosage 0.1 mg/kg, plasma 6 hours after administration, Comparative Example set to 1
Protocol: as §1, §2
(§3) The dispersion liquid of mRNA lipid nanoparticles prepared in above <Preparation of EPO mRNA-encapsulating lipid nanoparticles> was intravenously administered to ICR mice at a mRNA dosage of 0.1 mg/kg. 6 hours after the administration, blood was collected from the caudal vena cava, thereby obtaining plasma. The human EPO […] was quantified by using the obtained blood plasma and Erythropoietin (EPO) Human Elisa Kit (Abcam.plc). The quantitative value is described as a relative amount of EPO protein in a case where Comparative Example is set to 1.

[4] = tested on: ICR mice; experiment: EPO expression level in mice, dose dependency (human EPO ELISA of plasma); assay type: in vivo; conditions: intravenous, plasma 6 hours after administration
Protocol: as §1, §2
as §3, with “0.1, 0.5, and 1” for “0.1”, “where the amount of EPO protein at the time of 0.1 mg/kg administration in” for “where”

## CCCCCCCC(=O)OCCN(CCOC(=O)OC(CCCCCC)CCCC(=O)OCC(CCCC)CCCCCC)CCN(CC)CC (centres unmarked) [Comparative Example, 2-butyloctyl 3-ethyl-12-hexyl-6-(2-(octanoyloxy)ethyl)-10-oxo-9,11-dioxa-3,6-diazahexadecan-16-oate, reference compound]
[1]
  Particle diameter (nm): 161 nm
  PdI: 0.07
[2]
  Nucleic acid encapsulation rate: 50%
[3]
  Relative amount of EPO protein (with respect to Comparative Example 1): 1.00
[4]; mRNA dosage 0.1 mg/kg
  Relative amount of EPO protein (with respect to Comparative Example 1 at 0.1 mg/kg): 1.00
[4]; mRNA dosage 0.5 mg/kg
  Relative amount of EPO protein (with respect to Comparative Example 1 at 0.1 mg/kg): 0.25
[4]; mRNA dosage 1.0 mg/kg
  Relative amount of EPO protein (with respect to Comparative Example 1 at 0.1 mg/kg): 1.10

## CCCCCCCCC(CCCCCC)C(=O)OCCN(CCCN(CC)CC)CCOC(=O)OC(CCCCCC)CCCCC(=O)OCCCCCCC (centres unmarked) [Compound 24, heptyl 3-ethyl-13-hexyl-7-(2-((2-hexyldecanoyl)oxy)ethyl)-11-oxo-10,12-dioxa-3,7-diazaoctadecan-18-oate]
[1]
  Particle diameter (nm): 98 nm
  PdI: 0.13
[2]
  Nucleic acid encapsulation rate: 94%
[3]
  Relative amount of EPO protein (with respect to Comparative Example 1): 6.54
[4]; mRNA dosage 0.1 mg/kg
  Relative amount of EPO protein (with respect to Comparative Example 1 at 0.1 mg/kg): 4.65
[4]; mRNA dosage 0.5 mg/kg
  Relative amount of EPO protein (with respect to Comparative Example 1 at 0.1 mg/kg): 26.81
[4]; mRNA dosage 1.0 mg/kg
  Relative amount of EPO protein (with respect to Comparative Example 1 at 0.1 mg/kg): 45.73

## CCCCCCCOC(=O)CCCC(CCCCCC)OC(=O)OCCN(CCOC(=O)C(CCCCCCC)CCCCCCC)CCN(CC)CC (centres unmarked) [Compound 3, heptyl 3-ethyl-6-(2-((2-heptylnonanoyl)oxy)ethyl)-12-hexyl-10-oxo-9,11-dioxa-3,6-diazahexadecan-16-oate]
[1]
  Particle diameter (nm): 105 nm
  PdI: 0.06
[2]
  Nucleic acid encapsulation rate: 84%
[3]
  Relative amount of EPO protein (with respect to Comparative Example 1): 3.16
[4]; mRNA dosage 0.1 mg/kg
  Relative amount of EPO protein (with respect to Comparative Example 1 at 0.1 mg/kg): 1.91
[4]; mRNA dosage 0.5 mg/kg
  Relative amount of EPO protein (with respect to Comparative Example 1 at 0.1 mg/kg): 17.26
[4]; mRNA dosage 1.0 mg/kg
  Relative amount of EPO protein (with respect to Comparative Example 1 at 0.1 mg/kg): 27.22

## CCCCCCCCC(CCCCCCCC)C(=O)OCCN(CCCN(CC)CC)CCOC(=O)OC(CCCCCC)CCCCC(=O)OCCCCCCC (centres unmarked) [Compound 23, heptyl 3-ethyl-13-hexyl-7-(2-((2-octyldecanoyl)oxy)ethyl)-11-oxo-10,12-dioxa-3,7-diazaoctadecan-1 8-oate]
[1]
  Particle diameter (nm): 85 nm
  PdI: 0.11
[2]
  Nucleic acid encapsulation rate: 95%
[3]
  Relative amount of EPO protein (with respect to Comparative Example 1): 4.71
[4]; mRNA dosage 0.1 mg/kg
  Relative amount of EPO protein (with respect to Comparative Example 1 at 0.1 mg/kg): 4.97
[4]; mRNA dosage 0.5 mg/kg
  Relative amount of EPO protein (with respect to Comparative Example 1 at 0.1 mg/kg): 25.74
[4]; mRNA dosage 1.0 mg/kg
  Relative amount of EPO protein (with respect to Comparative Example 1 at 0.1 mg/kg): 43.74

## CCCCCCOC(=O)CCCCCCCCC(CCCCCC)OC(=O)OCCN(CCOC(=O)C(CCCCCC)CCCCCC)CCN(CC)CC (centres unmarked) [Compound 2, hexyl 3-ethyl-12-hexyl-6-(2-((2-hexyloctanoyl)oxy)ethyl)-10-oxo-9,11-dioxa-3,6-diazahenicosan-21-oate]
[1]
  Particle diameter (nm): 103 nm
  PdI: 0.03
[2]
  Nucleic acid encapsulation rate: 90%
[3]
  Relative amount of EPO protein (with respect to Comparative Example 1): 1.61

## CCCCCCCC(CCCCCCC)CC(=O)OCCN(CCOC(=O)OC(CCCCCC)CCCC(=O)OCC(CCCCCC)CCCCCC)CCN(CC)CC (centres unmarked) [Compound 10, 2-hexyloctyl 3-ethyl-6-(2-((3-heptyldecanoyl)oxy)ethyl)-12-hexyl-10-oxo-9,11-dioxa-3,6-diazahexadecan-16-oate]
[1]
  Particle diameter (nm): 75 nm
  PdI: 0.10
[2]
  Nucleic acid encapsulation rate: 86%
[3]
  Relative amount of EPO protein (with respect to Comparative Example 1): 1.72

## CCCCCCCCOC(=O)CCCC(CCCCCC)OC(=O)OCCN(CCOC(=O)CC(CCCCCCC)CCCCCCC)CCN(CC)CC (centres unmarked) [Compound 8, octyl 3-ethyl-6-(2-((3-heptyldecanoyl)oxy)ethyl)-12-hexyl-10-oxo-9,11-dioxa-3,6-diazahexadecan-16-oate]
[1]
  Particle diameter (nm): 89 nm
  PdI: 0.12
[2]
  Nucleic acid encapsulation rate: 78%
[3]
  Relative amount of EPO protein (with respect to Comparative Example 1): 3.79

## CCCCCCCOC(=O)CCCCC(CCCCCC)OC(=O)OCCN(CCCN(CC)CC)CCOC(=O)CC(CCCCCCC)CCCCCCC (centres unmarked) [Compound 25, heptyl 3-ethyl-7-(2-((3-heptyldecanoyl)oxy)ethyl)-13-hexyl-11-oxo-10,12-dioxa-3,7-diazaoctadecan-18-oate]
[1]
  Particle diameter (nm): 102 nm
  PdI: 0.16
[2]
  Nucleic acid encapsulation rate: 94%
[3]
  Relative amount of EPO protein (with respect to Comparative Example 1): 4.77

## CCCCCCCCC(CCCCCC)C(=O)OCCN(CCOC(=O)OC(CCCCCC)CCCC(=O)OCCCCCCC)CCN(CC)CC (centres unmarked) [Compound 19, heptyl 3-ethyl-12-hexyl-6-(2-((2-hexyldecanoyl)oxy)ethyl)-10-oxo-9,11-dioxa-3,6-diazahexadecan-1 6-oate]
[1]
  Particle diameter (nm): 91 nm
  PdI: 0.09
[2]
  Nucleic acid encapsulation rate: 94%
[3]
  Relative amount of EPO protein (with respect to Comparative Example 1): 4.31

## heptyl 3-ethyl-12-hexyl-6-(2-((2-hexyloctanoyl)oxy)ethyl)-10-oxo-9,11-dioxa-3,6-diazahexadecan-1 6-oate [Compound 5]
[1]
  Particle diameter (nm): 118 nm
  PdI: 0.07
[2]
  Nucleic acid encapsulation rate: 79%
[3]
  Relative amount of EPO protein (with respect to Comparative Example 1): 2.28

## CCCCCCCCCCC(CCCCCCCCCC)C(=O)OCCN(CCOC(=O)OC(CCCCCC)CCCC(=O)OCCCCCCC)CCN(CC)CC (centres unmarked) [Compound 18, heptyl 6-(2-((2-decyldodecanoyl)oxy)ethyl)-3-ethyl-12-hexyl-10-oxo-9,11-dioxa-3,6-diazahexadecan-16-oate]
[1]
  Particle diameter (nm): 79 nm
  PdI: 0.13
[2]
  Nucleic acid encapsulation rate: 95%
[3]
  Relative amount of EPO protein (with respect to Comparative Example 1): 1.30
